Consider seven compounds from ChEMBL document CHEMBL3044781, “Triterpenoid saponins with antifeedant activities from stem bark of Catunaregam spinosa (Rubiaceae) against Plutella xylostella (Plutellidae)” (2011).

The assay deals with Plutella xylostella. As to the kind of experiment: Antifeedant activity against second-instar larval stage of Plutella xylostella (diamondback moth) in cabbage leaf disks assessed as consumed leaf area treated for 10 secs before larval infestation measured within 48 hr by non-choice leaf disc method. Format: functional.

`CC1(C)CC[C@]2(C(=O)O[C@@H]3O[C@H](CO)[C@@H](O)[C@H](O)[C@H]3O)CC[C@]3(C)C(=CC[C@@H]4[C@@]5(C)CC[C@H](O[C@@H]6O[C@H](CO)[C@@H](O)[C@H](O[C@@H]7O[C@H](CO)[C@@H](O)[C@H](O)[C@H]7O)[C@H]6O[C@@H]6O[C@H](CO)[C@@H](O)[C@H](O)[C@H]6O)C(C)(C)[C@@H]5CC[C@]43C)[C@@H]2C1` [ARALIA-SAPONIN V]: the AFC50 was found to be 5467.82 µg/mL.
Consider `CC1(C)CC[C@]2(C(=O)O[C@@H]3O[C@H](CO)[C@@H](O)[C@H](O)[C@H]3O)CC[C@]3(C)C(=CC[C@@H]4[C@@]5(C)CC[C@H](O[C@@H]6O[C@H](CO)[C@@H](O)[C@H](O[C@@H]7O[C@H](CO)[C@@H](O)[C@H](O)[C@H]7O)[C@H]6O[C@@H]6OC[C@@H](O)[C@H](O)[C@H]6O)C(C)(C)[C@@H]5CC[C@]43C)[C@@H]2C1` [ARALIASAPONIN IV], for which the AFC50 came to 335.54 µg/mL.
In the case of `CC1(C)CC[C@]2(C(=O)O)CC[C@]3(C)C(=CC[C@@H]4[C@@]5(C)CC[C@H](O[C@@H]6O[C@H](CO)[C@@H](O)[C@H](O[C@@H]7O[C@H](CO)[C@@H](O)[C@H](O)[C@H]7O)[C@H]6O[C@@H]6OC[C@@H](O)[C@H](O)[C@H]6O)C(C)(C)[C@@H]5CC[C@]43C)[C@@H]2[C@@H]1O` [CATUNAROSIDE A], the AFC50 is 243.23 µg/mL.
Under `C[C@@H]1O[C@@H](O[C@H]2[C@H](O[C@H]3CC[C@]4(C)[C@H]5CC=C6[C@@H]7CC(C)(C)CC[C@]7(C(=O)O)CC[C@@]6(C)[C@]5(C)CC[C@H]4C3(C)C)O[C@H](CO)[C@@H](O)[C@@H]2O[C@@H]2O[C@H](CO)[C@@H](O)[C@H](O)[C@H]2O)[C@H](O)[C@H](O)[C@H]1O` [CATUNAROSIDE B] stands 369.63 µg/mL.
In the case of `C[C@@H]1O[C@@H](O[C@H]2[C@H](O[C@H]3CC[C@]4(C)[C@H]5CC=C6[C@@H]7[C@H](O)C(C)(C)CC[C@]7(C(=O)O[C@@H]7O[C@H](CO)[C@@H](O)[C@H](O)[C@H]7O)CC[C@@]6(C)[C@]5(C)CC[C@H]4C3(C)C)O[C@H](CO)[C@@H](O)[C@@H]2O[C@@H]2O[C@H](CO)[C@@H](O)[C@H](O)[C@H]2O)[C@H](O)[C@H](O)[C@H]1O` [CATUNAROSIDE C], the AFC50 was 946.13 µg/mL.
In the case of `CC1(C)CC[C@]2(C(=O)O[C@@H]3O[C@H](CO)[C@@H](O)[C@H](O)[C@H]3O)CC[C@]3(C)C(=CC[C@@H]4[C@@]5(C)CC[C@H](O[C@@H]6O[C@H](CO)[C@@H](O)[C@H](O[C@@H]7O[C@H](CO)[C@@H](O)[C@H](O)[C@H]7O)[C@H]6O[C@@H]6OC[C@@H](O)[C@H](O)[C@H]6O)C(C)(C)[C@@H]5CC[C@]43C)[C@@H]2[C@@H]1O` [CATUNAROSIDE] it was 608.42 µg/mL; in that of `CC1(C)CC[C@]2(C(=O)O)CC[C@]3(C)C(=CC[C@@H]4[C@@]5(C)CC[C@H](O[C@@H]6O[C@H](CO)[C@@H](O)[C@H](O[C@@H]7O[C@H](CO)[C@@H](O)[C@H](O)[C@H]7O)[C@H]6O[C@@H]6OC[C@@H](O)[C@H](O)[C@H]6O)C(C)(C)[C@@H]5CC[C@]43C)[C@@H]2C1` [SWARTZIATRIOSIDE], 106.73 µg/mL.
